Results reported in US12384818B2, “Cyclin-dependent kinase 5 (CDK5) inhibitory peptides” (Massachusetts Institute of Technology, priority 2017, dated 2025).
Ends that are not written are not given here. Peptide text beside a SMILES is read from it. * marks the point of attachment. FITC = O=C1OC2(c3ccc(O)cc3Oc3cc(O)ccc32)c2ccc(NC(=S)*)cc21; Ahx = NCCCCCC(=O)O

Key:
[1] = Blood brain barrier penetration in mice, targeted mass spectrometry of brain lysate; format: in vivo; conditions: 24 hours; for #Spec (number of spectra) / Area (peak area): tryptic fragment in brain lysate, mice 40 mg/kg i.p.
Method: Wild type mice were intraperitoneally injected with a single dose (40 mg/kg) of Cdk5i, and were sacrificed 24 hours after the injection. Prior to extracting the brain, mice were transcardially perfused with 40 mL of cold phospho-buffered saline (PBS) to ensure clearance of any Cdk5i circulating in the blood that may not have crossed the blood brain barrier. After the perfusion, the brains were dissected into two hemispheres and one hemisphere was lysed with cold lysis buffer (RIPA) to extract total protein. Total protein was then briefly run on a 12% acrylamide gel to separate large proteins and then digested with a trypsin enzyme and subjected to targeted mass spectrometry analysis using Cdk5i peptide sequence of SEQ ID NO. 3 linked to a GGG spacer/linker and FITC (Cdk5i sequence: FITC-GGG-SEQ ID NO. 3).
A substantial portion (11 amino acids out of 12) of the Cdk5i sequence including the conjugated tat protein sequence were detected using mass spectrometry based on the number of spectra and peak area. Using targeted mass spectrometry, brain lysate from mice injected with Cdk5i show an enrichment for Cdk5i based on # of spectra and peak area (2nd row of data in Table 1).

[2] = system: Human iPSC-derived neural progenitor cells; conditions: 1 μM, 2 hr; FIG. 9B

| portion of the Cdk5i sequence detected in brain ([1]; wild type mice, single dose 40 mg/kg intraperitoneally, perfused brain, mass spectrometry) | blood brain barrier penetration / enrichment in brain lysate ([1]; wild type mice, single dose 40 mg/kg intraperitoneally, targeted mass spectrometry) | Compound | #Spec (number of spectra) [1] | Area (peak area) [1] | penetration of plasma membrane (intracellular FITC signals) [2] |
| --- | --- | --- | --- | --- | --- |
|  |  | R.AFGIPVRCYSYGR.K: tryptic fragment of Cdk5i-Tat detected in mouse brain lysate by mass spectrometry | 22 | 8.42E+08 |  |
| 11 amino acids out of 12 | enrichment | ARAFGIPVRCYS [CDK5i] |  |  |  |
|  |  | R.CYSYGRK.K: tryptic fragment of Cdk5i-Tat detected in mouse brain lysate by mass spectrometry | 12 | 6.13E+08 |  |
|  |  | ARAFGIPVR | 12 | 3.83E+07 |  |
|  |  | CC[C@H](C)[C@H](NC(=O)CNC(=O)[C@H](Cc1ccccc1)NC(=O)[C@H](C)NC(=O)[C@H](CCCNC(=N)N)NC(=O)[C@H](C)NC(=O)CCCCCNC(=S)Nc1ccc2c(c1)C(=O)OC21c2ccc(O)cc2Oc2cc(O)ccc21)C(=O)N1CCC[C@H]1C(=O)N[C@H](C(=O)N[C@@H](CCCNC(=N)N)C(=O)N[C@@H](CS)C(=O)N[C@@H](Cc1ccc(O)cc1)C(=O)N[C@@H](CO)C(=O)N[C@@H](Cc1ccc(O)cc1)C(=O)NCC(=O)N[C@@H](CCCNC(=N)N)C(=O)N[C@@H](CCCCN)C(=O)N[C@@H](CCCCN)C(=O)N[C@@H](CCCNC(=N)N)C(=O)N[C@@H](CCCNC(=N)N)C(=O)N[C@@H](CCC(N)=O)C(=O)N[C@@H](CCCNC(=N)N)C(=O)N[C@@H](CCCNC(=N)N)C(=O)N[C@@H](CCCNC(=N)N)C(=O)O)C(C)C [FITC-Ahx-Cdk5i-Tat] ({FITC-Ahx}-ARAFGIPVRCYSYGRKKRRQRRR-OH) |  |  | able to penetrate plasma membrane |
